According to patent publication US10806795B2, “Bispecific anti-hapten/anti-blood brain barrier receptor antibodies, complexes thereof and their use as blood brain barrier shuttles” (Hoffmann-La Roche Inc., priority 2014, dated 2020):
“Also recorded” adds a separate entry of the source. Starred links: 1 amine or outer side, 2 acyl side, 3 side chain; linkers in the order of their positions; H or OH if unused. Non-standard residues stand in square brackets, D forms with d. No end group written: not given here. Pqa = (4-oxo-6-piperazin-1-yl-4H-quinazolin-3-yl)-acetic acid in the backbone, O=C(Cn1cnc2ccc(N3CCN([*:1])CC3)cc2c1=O)[*:2]; NMeR = CN[C@@H](CCCNC(=N)N)C(=O)O

Experiments:
[1] = Serum stability of digoxigenylated polypeptide, free or antibody-complexed (Western Blot-related assay of serum); format: in vivo, mice (strain NMRI); details: 32.1 nmol, serum 0.08 h, 2 h, 4 h, 24 h, listed as non-complexed polypeptide
Description: Serum samples were stored at −80° C.
The determination of the amount of digoxigenylated peptide in the serum at the given time points was difficult compared to the detection of Dig-Cy5 as no direct means to detect the polypeptide in serum samples was available. Therefore, a Western Blot-related assay to detect digoxigenylated peptide in serum was established. In a first step, the serum samples were separated on reducing SDS-PAGE. Because sample preparation included exposure of the serum to high concentrations of SDS and reducing agents, complexed Dig-polypeptide conjugates can become released from the (completely denatured/unfolded) anti-digoxigenin antibody, whereas covalent conjugates remained bound. To mediate the release of the polypeptide from the non-covalent antibody complex and separate the individual components by SDS-PAGE, 2 μl of each serum sample was diluted in 18 μl 20 mM histidine/140 mM NaCl pH 6.0, mixed with 6.7 μl of 4×LDS sample buffer and 3 μl of 10× sample reducing agent (NuPAGE, Invitrogen) for 5 min at 95° C. As a control, 2 μl of serum of an untreated mouse of the same strain was used. […] Digoxigenylated polypeptides were subsequently detected on the membrane with an anti-digoxigenin antibody. […] Chemiluminescence was detected with the Lumilmager F1 (Roche) with an exposure time of 20 min.

[2] = molecular target: T1, NPY2R (Homo sapiens, UniProt P49146); assay: Effect on the Y2Receptor family: NPY2R
T1 sequence (P49146 1-381): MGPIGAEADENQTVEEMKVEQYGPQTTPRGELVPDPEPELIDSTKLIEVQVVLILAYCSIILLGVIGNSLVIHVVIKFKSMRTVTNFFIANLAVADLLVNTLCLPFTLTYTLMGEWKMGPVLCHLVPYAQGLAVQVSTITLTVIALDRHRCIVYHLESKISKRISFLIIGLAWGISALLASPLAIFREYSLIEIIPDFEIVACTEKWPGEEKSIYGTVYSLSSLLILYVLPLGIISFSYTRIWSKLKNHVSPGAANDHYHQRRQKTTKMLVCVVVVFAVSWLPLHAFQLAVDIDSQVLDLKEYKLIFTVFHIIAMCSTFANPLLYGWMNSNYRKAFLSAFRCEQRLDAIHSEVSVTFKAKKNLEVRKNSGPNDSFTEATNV

[3] = molecular target: T2, NPY1R (Homo sapiens, UniProt P25929); assay: Effect on the Y2Receptor family: NPY1R
T2 sequence (P25929 1-384): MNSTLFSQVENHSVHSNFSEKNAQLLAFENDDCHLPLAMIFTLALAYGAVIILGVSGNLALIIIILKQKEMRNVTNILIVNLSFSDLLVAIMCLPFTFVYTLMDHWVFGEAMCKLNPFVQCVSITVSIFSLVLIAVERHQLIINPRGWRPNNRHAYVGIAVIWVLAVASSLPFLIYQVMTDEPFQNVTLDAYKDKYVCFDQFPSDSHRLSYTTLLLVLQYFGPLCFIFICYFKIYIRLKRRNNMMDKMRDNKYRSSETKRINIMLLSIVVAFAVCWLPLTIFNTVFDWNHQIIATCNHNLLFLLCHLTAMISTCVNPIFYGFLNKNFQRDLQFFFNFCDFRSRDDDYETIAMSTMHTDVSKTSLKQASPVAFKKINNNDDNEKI

[4] = molecular target: NPY4R (Homo sapiens, UniProt P50391); assay: Effect on the Y2Receptor family: NPY4R
[5] = molecular target: T3, NPY5R (Homo sapiens, UniProt Q15761); assay: Effect on the Y2Receptor family: NPY5R
T3 sequence (Q15761 1-445): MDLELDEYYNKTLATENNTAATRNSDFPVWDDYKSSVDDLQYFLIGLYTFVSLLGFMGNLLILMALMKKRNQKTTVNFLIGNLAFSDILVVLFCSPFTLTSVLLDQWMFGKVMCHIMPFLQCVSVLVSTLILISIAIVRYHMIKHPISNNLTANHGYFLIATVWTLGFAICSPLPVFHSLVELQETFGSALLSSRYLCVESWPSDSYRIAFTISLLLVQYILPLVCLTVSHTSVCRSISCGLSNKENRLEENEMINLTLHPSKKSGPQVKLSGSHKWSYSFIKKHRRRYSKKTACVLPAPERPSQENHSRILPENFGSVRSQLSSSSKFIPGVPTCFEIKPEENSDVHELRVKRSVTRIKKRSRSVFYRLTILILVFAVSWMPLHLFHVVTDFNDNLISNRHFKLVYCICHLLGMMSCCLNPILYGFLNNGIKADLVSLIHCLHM

[6] = parameters: species or system mice; details: mouse, in vivo
Source text: The control group was not pre-injected with the anti-biotin antibody.

[7] = molecular target: anti-helicar motif amino acid sequence antibody; assay: Binding [Kd] of PYY peptides by anti-helicar motif amino acid sequence antibody

NPY4R, sequence (P50391 whole entry, species assumed): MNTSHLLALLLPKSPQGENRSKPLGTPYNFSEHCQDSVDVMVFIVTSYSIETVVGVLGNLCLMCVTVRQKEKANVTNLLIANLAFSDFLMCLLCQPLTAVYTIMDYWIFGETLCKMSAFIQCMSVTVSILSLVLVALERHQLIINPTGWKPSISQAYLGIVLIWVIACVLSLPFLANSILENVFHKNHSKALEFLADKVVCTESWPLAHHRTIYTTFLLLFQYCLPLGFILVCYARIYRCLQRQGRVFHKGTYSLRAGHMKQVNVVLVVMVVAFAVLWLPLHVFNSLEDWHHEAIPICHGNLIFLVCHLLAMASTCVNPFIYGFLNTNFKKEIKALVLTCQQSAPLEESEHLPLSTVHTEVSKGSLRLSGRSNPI

CC[C@H](C)[C@H](NC(C)=O)C(=O)N[C@@H](CCCCNC(=O)CCOCCOCCOCCNC(=O)CO[C@H]1CC[C@@]2(C)[C@H](CC[C@@H]3[C@@H]2C[C@@H](O)[C@]2(C)[C@@H](C4=CC(=O)OC4)CC[C@]32O)C1)C(=O)N1CCN(c2ccc3ncn(CC(=O)N[C@@H](CCCNC(=N)N)C(=O)N[C@@H](Cc4c[nH]cn4)C(=O)N[C@@H](Cc4ccc(O)cc4)C(=O)N[C@@H](CC(C)C)C(=O)N[C@@H](CC(N)=O)C(=O)N[C@@H](Cc4c[nH]c5ccccc45)C(=O)N[C@H](C(=O)N[C@H](C(=O)N[C@@H](CCCNC(=N)N)C(=O)N[C@@H](CCC(N)=O)C(=O)N(C)[C@@H](CCCNC(=N)N)C(=O)N[C@@H](Cc4ccc(O)cc4)C(N)=O)[C@@H](C)O)C(C)C)c(=O)c3c2)CC1 [Ac-PYY(PEG3-Dig)]
presence/amount of the digoxigenin polypeptide in murine serum [1]: barely any signal associable to the small polypeptide was detectable even at the earliest time point; also recorded: very short half-life in the serum of mice

Ac-Ile-Lys-Pqa-Arg-His-Tyr-Leu-Asn-Trp-Val-Thr-Arg-Gln-(NMe)-Arg-Try-NH2 * 4 HOAc (Ac-IK[Pqa]RHYLNWVTRQ[NMeR]Y-NH2; also: 4 HOAc salt)
NPY2R [2]: 1.0 nM | NPY1R [3]: in- | NPY4R [4]: in- | NPY5R [5]: in-

Biotin-O2Oc-Ser-O2Oc-DADOO-Cy5 [Biotin-Cy5]
serum half-life and exposure levels [6]: eliminated with a low serum half-life and low exposure levels

IKPEAPGEDASPEAHLANEVARLHYLNLVTRQRY-NH2 [PYY_helicar]
Kd [7]: 12 nM | NPY2R [2]: 6.38 nM | NPY4R [4]: in- | NPY5R [5]: in-
